Experiments:
Format in all cases: in vivo
[1] = tested on: Erysiphe graminis f. sp. tritici; test: Test E: wheat powdery mildew, spray the day before inoculation (disease rating, 100 = 100% disease control)
Outline: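 Protective test: spores of E. graminis f. sp. tritici dusted on wheat seedlings one day after run-off spraying of test suspension (acetone/water with 250 ppm surfactant; 200 ppm = 500 g/ha). Ratings after 7 days in growth chamber at 20° C, 100 = full control, 0 = none, relative to controls.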

Phytophthora infestans [2] = test: whole plant or invertebrate; conditions: tomato late blight
Plasmopara viticola = test: Test B: grape downy mildew, spray 24 h after inoculation (disease rating, 100 = 100% disease control)
Outline: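 This is a curative spray test, applied 24 h after inoculation. Compounds in 50/50 acetone–water with 250 ppm Trem 014 surfactant were sprayed to run-off on P. viticola-infected seedlings, with 200 ppm equating to 500 g/ha. Plants were kept 5 days in a 20 °C growth chamber, then 24 h humid, and scored 0–100 for disease control relative to controls.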

Phytophthora infestans [3] = test: whole plant or invertebrate; conditions: tomato late blight; remark: listed apart in the source
[4] = spray the day before inoculation, compounds without asterisk (not 40 or 10 ppm)
[5] = spray 24 h after inoculation, compounds without asterisk (not 40 or 10 ppm)
[6] = spray 17 h after inoculation, compounds without asterisk (not 40 or 10 ppm)
[7] = spray the day before inoculation, tested at 10 ppm
[8] = spray 24 h after inoculation, tested at 10 ppm
[9] = spray 17 h after inoculation, tested at 10 ppm
[10] = spray the day before inoculation, tested at 40 ppm
[11] = spray 24 h after inoculation, tested at 40 ppm
[12] = spray 17 h after inoculation, tested at 40 ppm

Compound	Test E disease rating (100 = 100% disease control, 0 = no disease control) [1, 4] [%]	Test C disease rating (100 = 100% disease control, 0 = no disease control) (Phytophthora infestans [2]; [4]) [%]	Test B disease rating (100 = 100% disease control, 0 = no disease control) (Plasmopara viticola; [5]) [%]	Test D disease rating (100 = 100% disease control, 0 = no disease control) (Phytophthora infestans [3]; [6]) [%]	also measured
Cc1cc(C(F)(F)F)nn1CC(=O)N1CCC(c2noc(C(=O)N(C)[C@H](C)c3ccccc3)n2)CC1 [compound 216]	0	95	72	16	
Cc1cc(C(F)(F)F)nn1CC(=O)N1CCC(n2cc(C(=O)N(C)[C@@H]3CCCc4ccccc43)nn2)CC1 [compound 217]	0	99	52	40	
CNC(=O)OC1CCC(N(C)C(=O)c2csc(C3CCN(C(=O)Cn4nc(C(F)(F)F)cc4C)CC3)n2)c2ccccc21 (stereo not shown) [compound 219]	0	99	69	99	
Cc1cc(C(F)(F)F)nn1CC(=O)N1CCC(c2nc(C(=O)N(C)C3CCc4cc(Cl)ccc43)cs2)CC1 (stereo not shown) [compound 221]					Test E disease rating (100 = 100% disease control, 0 = no disease control) [1, 7]: 0%; Test C disease rating (100 = 100% disease control, 0 = no disease control) (Phytophthora infestans [2]; [7]): 99%; Test B disease rating (100 = 100% disease control, 0 = no disease control) (Plasmopara viticola; [8]): 77%; Test D disease rating (100 = 100% disease control, 0 = no disease control) (Phytophthora infestans [3]; [9]): 98%
Cc1cc(C(F)(F)F)nn1CC(=O)N1CCC(c2csc(C(=O)N(C)[C@@H]3CCCc4ccccc43)n2)CC1 [compound 223]					Test E disease rating (100 = 100% disease control, 0 = no disease control) [1, 10]: 0%; Test C disease rating (100 = 100% disease control, 0 = no disease control) (Phytophthora infestans [2]; [10]): 100%; Test B disease rating (100 = 100% disease control, 0 = no disease control) (Plasmopara viticola; [11]): 99%; Test D disease rating (100 = 100% disease control, 0 = no disease control) (Phytophthora infestans [3]; [12]): 99%
Cc1cc(C(F)(F)F)nn1CC(=O)N1CCN(c2nc(C(=O)N(C)[C@@H]3CCCc4ccccc43)ns2)CC1 [compound 224]					Test E disease rating (100 = 100% disease control, 0 = no disease control) [1, 10]: 0%; Test C disease rating (100 = 100% disease control, 0 = no disease control) (Phytophthora infestans [2]; [10]): 100%; Test B disease rating (100 = 100% disease control, 0 = no disease control) (Plasmopara viticola; [11]): 93%; Test D disease rating (100 = 100% disease control, 0 = no disease control) (Phytophthora infestans [3]; [12]): 99%
Cc1cc(C(F)(F)F)nn1CC(=O)N1CCC(c2nc(C(=O)N(C)[C@@H]3CCCc4ccccc43)no2)CC1 [compound 225]	0	100	83	99	
Cc1nc(C2CCN(C(=O)Cn3nc(C(F)(F)F)cc3C)CC2)sc1C(=O)N(C)[C@@H]1CCCc2ccccc21 [compound 227]	0	63	44	0	
CCC1C=Cc2ccccc2C1N(C)C(=O)c1csc(C2CCN(C(=O)Cn3nc(C(F)(F)F)cc3C)CC2)n1 (stereo not shown) [compound 228]	0	100	88	99	
COC(=O)C1CC(N(C)C(=O)c2csc(C3CCN(C(=O)Cn4nc(C(F)(F)F)cc4C)CC3)n2)c2ccccc21 (stereo not shown) [compound 229]	0	100	97	90	
Cc1cc(C(F)(F)F)nn1CC(=O)N1CCC(c2nc(C(=O)N(C)C3c4ccccc4C=CC3C)cs2)CC1 (stereo not shown) [compound 230]	0	100	87	94	
Cc1cc(C(F)(F)F)nn1CC(=O)N1CCC(c2nc(C(=O)N(C)C3CC(CO)c4ccccc43)cs2)CC1 (stereo not shown) [compound 235]	0	100	94	99	
Cc1cc(C(F)(F)F)nn1CC(=O)N1CCC(c2nc(C(=O)N(C)C(C)(C)c3ccccc3)cs2)CC1 [compound 237]	62	99	81	99	
CN(C(=O)c1csc(C2CCN(C(=O)Cn3nc(C(F)(F)F)cc3C(C)(C)C)CC2)n1)[C@@H]1CCCc2ccccc21 [compound 239]					Test E disease rating (100 = 100% disease control, 0 = no disease control) [1, 10]: 0%; Test C disease rating (100 = 100% disease control, 0 = no disease control) (Phytophthora infestans [2]; [10]): 57%; Test B disease rating (100 = 100% disease control, 0 = no disease control) (Plasmopara viticola; [11]): 63%; Test D disease rating (100 = 100% disease control, 0 = no disease control) (Phytophthora infestans [3]; [12]): 0%
CC(C)c1cc(C(F)(F)F)nn1CC(=O)N1CCC(c2nc(C(=O)N(C)[C@@H]3CCCc4ccccc43)cs2)CC1 [compound 240]					Test E disease rating (100 = 100% disease control, 0 = no disease control) [1, 7]: 0%; Test C disease rating (100 = 100% disease control, 0 = no disease control) (Phytophthora infestans [2]; [7]): 100%; Test B disease rating (100 = 100% disease control, 0 = no disease control) (Plasmopara viticola; [8]): 99%; Test D disease rating (100 = 100% disease control, 0 = no disease control) (Phytophthora infestans [3]; [9]): 99%
Cc1cc(C(F)(F)F)nn1CC(=O)N1CCCN(c2nc(C(=O)N(C)[C@@H]3CCCc4ccccc43)cs2)CC1 [compound 241]	47	99	17	68	
Cc1cc(C(F)(F)F)nn1CC(=O)N1CCCN(c2nc(C(=O)N(C)[C@@H]3CCCc4ccccc43)cs2)CC1.Cl [compound 242]	0	100	16	73	
Cc1ccccc1C(C)N(C)C(=O)c1csc(C2CCN(C(=O)Cn3nc(C(F)(F)F)cc3C)CC2)n1 (stereo not shown) [compound 243]					Test E disease rating (100 = 100% disease control, 0 = no disease control) [1, 10]: 0%; Test C disease rating (100 = 100% disease control, 0 = no disease control) (Phytophthora infestans [2]; [10]): 86%; Test B disease rating (100 = 100% disease control, 0 = no disease control) (Plasmopara viticola; [11]): 91%; Test D disease rating (100 = 100% disease control, 0 = no disease control) (Phytophthora infestans [3]; [12]): 82%
COC(=O)[C@H](c1ccccc1)N(C)C(=O)c1csc(C2CCN(C(=O)Cn3nc(C(F)(F)F)cc3C)CC2)n1 [compound 244]	0	99	100	93	
Cc1cc(C(F)(F)F)nn1CC(=O)N1CCC(c2nc(C(=O)N(C)[C@H](C(=O)O)c3ccccc3)cs2)CC1 [compound 245]	0	47	0	0	
Cc1cc(C(F)(F)F)nn1CC(=O)N1CCC(c2nc(C(=O)N(C)[C@H](C(N)=O)c3ccccc3)cs2)CC1 [compound 247]	0	90	0	17	
Cc1cc(C(F)(F)F)nn1CC(=O)N1CCC(c2nc(C(=O)N(C)Cc3ccccc3)cs2)CC1 [compound 248]	53	100	88	80	
Cc1cc(C(F)(F)F)nn1CC(=O)N1CCC(c2nc(C(=O)N(C)C(C)c3ccccc3F)cs2)CC1 (stereo not shown) [compound 250]					Test E disease rating (100 = 100% disease control, 0 = no disease control) [1, 7]: 0%; Test C disease rating (100 = 100% disease control, 0 = no disease control) (Phytophthora infestans [2]; [7]): 97%; Test B disease rating (100 = 100% disease control, 0 = no disease control) (Plasmopara viticola; [8]): 97%; Test D disease rating (100 = 100% disease control, 0 = no disease control) (Phytophthora infestans [3]; [9]): 71%
Cc1cc(C(F)(F)F)nn1CC(=O)N1CCC(c2nc(C(=O)N(C)C(C)c3ccccc3Cl)cs2)CC1 (stereo not shown) [compound 251]					Test E disease rating (100 = 100% disease control, 0 = no disease control) [1, 7]: 0%; Test C disease rating (100 = 100% disease control, 0 = no disease control) (Phytophthora infestans [2]; [7]): 100%; Test B disease rating (100 = 100% disease control, 0 = no disease control) (Plasmopara viticola; [8]): 100%; Test D disease rating (100 = 100% disease control, 0 = no disease control) (Phytophthora infestans [3]; [9]): 97%
Cc1cc(C(F)(F)F)nn1CC(=O)N1CCC(c2nc(C(=O)N(C)C(C)c3ccccc3Br)cs2)CC1 (stereo not shown) [compound 252]					Test E disease rating (100 = 100% disease control, 0 = no disease control) ([1]; sprayed the day before inoculation, 7 days at 20° C., tested at 10 ppm (**)): 19; Test C disease rating (100 = 100% disease control, 0 = no disease control) (Phytophthora infestans [2]; sprayed the day before inoculation, tested at 10 ppm (**)): 99; Test B disease rating (100 = 100% disease control, 0 = no disease control) (Plasmopara viticola; sprayed 24 h after inoculation, tested at 10 ppm (**)): 99; Test D disease rating (100 = 100% disease control, 0 = no disease control) (Phytophthora infestans [3]; sprayed 17 h after inoculation, tested at 10 ppm (**)): 85

Reference: patent US8586611B2 (priority 2005, dated 2013)
